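Each compound was tested at five concentrations against cells in 96-well plates for 48 hours. At the GI50, growth is halved. The concentration for full growth arrest is given as TGI.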
Assays:
Experiment in all cases: DTP human tumour cell line panel, 48 h; in the data active means GI50 below about 0.43 µM; inactive means the rest
[1] = system: 786-0 renal
[2] = system: A498 renal
[3] = system: A549 NSCLC
[4] = system: ACHN renal
[5] = system: BT-549 breast
[6] = system: CAKI-1 renal
[7] = system: CCRF-CEM leukemia
[8] = system: COLO 205 colon
[9] = system: DU-145 prostate
[10] = system: HCC-2998 colon
[11] = system: HCT-116 colon
[12] = system: HCT-15 colon
[13] = system: HL-60(TB) leukemia
[14] = system: HOP-62 NSCLC
[15] = system: HS 578T breast
[16] = system: HT29 colon
[17] = system: IGROV1 ovarian
[18] = system: K-562 leukemia
[19] = system: KM12 colon
[20] = system: LOX IMVI melanoma
[21] = system: M14 melanoma
[22] = system: MALME-3M melanoma
[23] = system: MCF7 breast
[24] = system: MDA-MB-231 breast
[25] = system: MDA-MB-435
[26] = system: MOLT-4 leukemia
[27] = system: NCI-H226 lung
[28] = system: NCI-H23 lung
[29] = system: NCI-H460 lung
[30] = system: NCI-H522 lung
[31] = system: NCI/ADR-RES ovarian
[32] = system: OVCAR-3 ovarian
[33] = system: OVCAR-4 ovarian
[34] = system: OVCAR-5 ovarian
[35] = system: OVCAR-8 ovarian
[36] = system: PC-3 prostate
[37] = system: RPMI-8226 leukemia
[38] = system: RXF 393 renal
[39] = system: SF-268 CNS
[40] = system: SF-539 CNS
[41] = system: SK-MEL-2 melanoma
[42] = system: SK-MEL-28 melanoma
[43] = system: SK-MEL-5 melanoma
[44] = system: SK-OV-3 ovarian
[45] = system: SN12C renal
[46] = system: SNB-19 CNS
[47] = system: SR leukemia
[48] = system: SW-620 colon
[49] = system: T-47D breast
[50] = system: TK-10 renal
[51] = system: U251 CNS
[52] = system: UACC-257 melanoma
[53] = system: UACC-62 melanoma
[54] = system: UO-31 renal

COc1ccc(-c2nc(-c3nc4ccc(OC)cc4[nH]3)cc3c2[nH]c2ccccc23)cc1
2.86 µM: TGI [37]
49.2 µM: TGI [41]
> 100 µM: TGI [1] | TGI [2] | TGI [3] | TGI [4] | TGI [5] | TGI [6] | TGI [7] | TGI [8] | TGI [9] | TGI [10] | TGI [11] | TGI [12] | TGI [13] | TGI [14] | TGI [15] | TGI [16] | TGI [17] | TGI [18] | TGI [19] | TGI [20] | TGI [21] | TGI [22] | TGI [23] | TGI [24] | TGI [25] | TGI [26] | TGI [27] | TGI [28] | TGI [29] | TGI [30] | TGI [31] | TGI [32] | TGI [33] | TGI [34] | TGI [35] | TGI [36] | TGI [38] | TGI [39] | TGI [40] | TGI [42] | TGI [43] | TGI [44] | TGI [45] | TGI [46] | TGI [47] | TGI [48] | TGI [49] | TGI [50] | TGI [51] | TGI [52] | TGI [53] | TGI [54]
active: GI50 [37] 0.363 µM
inactive: GI50 [1] 4.62 µM | GI50 [2] 3.34 µM | GI50 [3] 1.92 µM | GI50 [4] 2.33 µM | GI50 [5] 7.1 µM | GI50 [6] 6.07 µM | GI50 [7] 0.887 µM | GI50 [8] 6.76 µM | GI50 [9] 2.06 µM | GI50 [10] 6.57 µM | GI50 [11] 2.48 µM | GI50 [12] 2.88 µM | GI50 [13] 4.08 µM | GI50 [14] 4.24 µM | GI50 [15] 2.85 µM | GI50 [16] 3.46 µM | GI50 [17] 2.83 µM | GI50 [18] 1.52 µM | GI50 [19] 2.57 µM | GI50 [20] 3.14 µM | GI50 [21] 3.34 µM | GI50 [22] 27.5 µM | GI50 [23] 2.55 µM | GI50 [24] 8.51 µM | GI50 [25] 4.31 µM | GI50 [26] 1.98 µM | GI50 [27] 4.37 µM | GI50 [28] 5.8 µM | GI50 [29] 2.05 µM | GI50 [30] 2.7 µM | GI50 [31] 2.1 µM | GI50 [32] 3.51 µM | GI50 [33] > 100 µM | GI50 [34] > 100 µM | GI50 [35] 1.04 µM | GI50 [36] 1.52 µM | GI50 [38] 2.77 µM | GI50 [39] 4.9 µM | GI50 [40] 9.29 µM | GI50 [41] 3.31 µM | GI50 [42] > 100 µM | GI50 [43] 2.18 µM | GI50 [44] > 100 µM | GI50 [45] 3.49 µM | GI50 [46] 3.37 µM | GI50 [47] 4.29 µM | GI50 [48] 4.83 µM | GI50 [49] 2.27 µM | GI50 [50] 3.14 µM | GI50 [51] 2.89 µM | GI50 [52] 4.34 µM | GI50 [53] 2.75 µM | GI50 [54] 1.66 µM

— PubChem BioAssay (NCI)
